Laboratory results taken from ChEMBL document CHEMBL1201862, “PubChem BioAssay data set” (2004).
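Tested at 5 concentrations; 48 h exposure; 96-well plates; endpoints linearly interpolated, else capped at highest concentration. Abbreviation: GI50, concentration required for 50% inhibition of growth.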 The source made the active and inactive calls. No stated cut-off is given here; in the data, active = GI50 up to about 1.1 µM and inactive = higher.

Experiments:
Test in all cases: NCI-60 cell line screen, 48 h
[1] = tested on: SNB-78
[2] = tested on: LXFL 529
[3] = tested on: TK-10
[4] = tested on: UACC-62
[5] = tested on: DLD-1
[6] = tested on: HCT-15
[7] = tested on: SK-OV-3
[8] = tested on: K562
[9] = tested on: SF-539
[10] = tested on: A498
[11] = tested on: UO-31
[12] = tested on: EKVX
[13] = tested on: HCT-116
[14] = tested on: XF498
[15] = tested on: UACC-257
[16] = tested on: SN12C
[17] = tested on: ACHN
[18] = tested on: SW-620
[19] = tested on: KM-20L2
[20] = tested on: KM12
[21] = tested on: CCRF-CEM
[22] = tested on: RXF 393
[23] = tested on: RPMI-8226
[24] = tested on: HOP-92
[25] = tested on: OVCAR-8
[26] = tested on: 786-0
[27] = tested on: NCI-H460
[28] = tested on: COLO 205
[29] = tested on: MOLT-4
[30] = tested on: NCI-H23
[31] = tested on: SK-MEL-2
[32] = tested on: SR
[33] = tested on: LOX IMVI
[34] = tested on: CAKI-1
[35] = tested on: SNB-75
[36] = tested on: HL-60
[37] = tested on: SK-MEL-5
[38] = tested on: DMS-273
[39] = tested on: M19-MEL
[40] = tested on: A549
[41] = tested on: SK-MEL-28
[42] = tested on: SF-295
[43] = tested on: SF-268
[44] = tested on: HCC 2998
[45] = tested on: U-251
[46] = tested on: OVCAR-4
[47] = tested on: DMS-114
[48] = tested on: SNB-19
[49] = tested on: T47D
[50] = tested on: PC-3
[51] = tested on: OVCAR-5
[52] = tested on: OVCAR-3
[53] = tested on: MDA-MB-231
[54] = tested on: Malme-3M
[55] = tested on: HOP-62
[56] = tested on: MDA-N
[57] = tested on: NCI-H226
[58] = tested on: NCI/ADR-RES
[59] = tested on: NCI-H522
[60] = tested on: BT-549
[61] = tested on: MDA-MB-435
[62] = tested on: Hs-578T
[63] = tested on: M14
[64] = tested on: MCF7
[65] = tested on: DU-145
[66] = tested on: HT-29
[67] = tested on: IGROV-1
[68] = tested on: HOP-18

Measured: GI50

C[Si](C)(C)C(Sc1ccccc1)(Sc1ccccc1)Sc1ccccc1
50.5 µM: [6]
inactive: [1] > 100 µM | [2] 81.5 µM | [3] > 100 µM | [4] 26.4 µM | [5] 53.6 µM | [7] > 100 µM | [8] > 100 µM | [9] > 100 µM | [10] 76.9 µM | [11] > 100 µM | [12] 95.5 µM | [13] 60.3 µM | [14] 30.8 µM | [15] 52.5 µM | [16] > 100 µM | [17] 43 µM | [18] 46.7 µM | [19] 67.1 µM | [20] 60.3 µM | [21] 24 µM | [22] 29.4 µM | [23] 41.7 µM | [24] 17.1 µM | [25] > 100 µM | [26] > 100 µM | [27] > 100 µM | [28] 62.2 µM | [29] 4.28 µM | [30] 22.3 µM | [31] 25.9 µM | [32] 35.7 µM | [33] 58.5 µM | [34] > 100 µM | [35] 40.5 µM | [36] 35.2 µM | [37] 67.9 µM | [38] > 100 µM | [39] 34.7 µM | [40] 39.3 µM | [41] 46.7 µM | [42] 74.1 µM | [43] 76.6 µM | [44] 94 µM | [45] 57.7 µM | [46] > 100 µM | [47] 54.8 µM | [48] > 100 µM

O=[N+]([O-])c1cc(/C=N/C23CC4CC(CC(C4)C2)C3)ccc1Cl
inactive: [49] 18.2 µM | [3] 29.7 µM | [4] 14.3 µM | [7] 18.4 µM | [8] 4.42 µM | [50] 19.8 µM | [9] 22.9 µM | [10] > 100 µM | [11] 7.52 µM | [12] 29.9 µM | [13] 3.94 µM | [15] 20.7 µM | [16] 15.9 µM | [17] 24 µM | [18] 13 µM | [20] 17.1 µM | [21] 2.82 µM | [22] 19.2 µM | [23] 4.31 µM | [24] 34.5 µM | [25] 25.1 µM | [51] 34 µM | [52] 17.9 µM | [53] 11.7 µM | [54] 20.9 µM | [55] 4 µM | [56] 8.02 µM | [26] 19.8 µM | [27] 31.8 µM | [57] 51.1 µM | [28] 42.6 µM | [29] 8.73 µM | [30] 19.1 µM | [31] 20.5 µM | [32] 4.37 µM | [58] 26.3 µM | [33] 19 µM | [59] 13.4 µM | [34] 6.71 µM | [35] 36.2 µM | [60] 21 µM | [36] 3.03 µM | [37] 21.5 µM | [61] 16.5 µM | [40] > 100 µM | [41] 18.1 µM | [62] 38.8 µM | [42] 37.9 µM | [43] 28.7 µM | [44] 30.5 µM | [63] 12.3 µM | [45] 18.7 µM | [64] 9.02 µM | [46] 19.5 µM | [65] 27.8 µM | [66] 19.1 µM | [67] 23.6 µM | [48] 28.6 µM
22.6 µM: [6]

COc1ccc(/C=N/n2cnc3c(sc(=S)n3-c3ccccc3)c2=O)cc1
inactive: [2] 16.9 µM | [3] 25.3 µM | [4] 16.7 µM | [5] 26.8 µM | [7] 13.2 µM | [8] 15.8 µM | [9] 12.8 µM | [11] 40.4 µM | [13] > 100 µM | [15] 23.6 µM | [17] 27.6 µM | [18] 99.3 µM | [20] > 100 µM | [21] 18.3 µM | [23] 16.4 µM | [24] 4.43 µM | [25] 26.5 µM | [51] 1.68 µM | [52] 14.9 µM | [55] 12.2 µM | [27] 35.8 µM | [57] 18.3 µM | [28] 50.8 µM | [29] 20.4 µM | [30] 23.6 µM | [32] 29.2 µM | [59] 13.5 µM | [35] 2.47 µM | [36] 12.5 µM | [37] 24.7 µM | [39] 33.2 µM | [40] 45.5 µM | [41] 13.2 µM | [42] 10 µM | [43] 6.28 µM | [44] 23.9 µM | [45] 23.2 µM | [66] 24.5 µM | [67] 37 µM | [48] 17.7 µM

[N-]=[N+]=Nc1cc(=O)n(-c2ccccc2)c2ccccc12
inactive: [2] > 100 µM | [3] > 100 µM | [4] > 100 µM | [5] > 100 µM | [7] > 100 µM | [8] > 100 µM | [9] > 100 µM | [11] > 100 µM | [13] > 100 µM | [15] > 100 µM | [16] > 100 µM | [17] > 100 µM | [18] > 100 µM | [20] > 100 µM | [21] > 100 µM | [22] 63.1 µM | [23] > 100 µM | [25] > 100 µM | [51] > 100 µM | [68] > 100 µM | [54] > 100 µM | [55] > 100 µM | [26] > 100 µM | [27] > 100 µM | [57] > 100 µM | [28] > 100 µM | [29] > 100 µM | [30] > 100 µM | [31] > 100 µM | [32] > 100 µM | [33] > 100 µM | [59] > 100 µM | [34] > 100 µM | [35] 70.8 µM | [36] > 100 µM | [37] > 100 µM | [38] > 100 µM | [39] > 100 µM | [40] > 100 µM | [41] > 100 µM | [42] > 100 µM | [43] > 100 µM | [63] > 100 µM | [45] > 100 µM | [46] > 100 µM | [47] > 100 µM | [66] > 100 µM | [67] > 100 µM
> 100 µM: [6]

Cc1cc(C)c2c(O)cc(-c3cccc(F)c3)nc2n1
active: [49] 0.232 µM | [4] < 0.0284 µM | [7] 0.158 µM | [8] < 0.0175 µM | [50] 0.0718 µM | [9] 0.0944 µM | [10] 0.274 µM | [12] 0.45 µM | [13] < 0.0186 µM | [16] 0.299 µM | [17] 0.0953 µM | [18] < 0.0194 µM | [20] 0.0351 µM | [21] 0.172 µM | [22] 0.163 µM | [23] 0.139 µM | [24] < 0.01 µM | [25] 0.261 µM | [51] 0.399 µM | [52] 0.025 µM | [53] 0.42 µM | [54] 0.0614 µM | [55] 0.158 µM | [56] 0.0116 µM | [26] 0.177 µM | [27] 0.0738 µM | [57] 0.168 µM | [28] 0.043 µM | [29] 0.22 µM | [30] 0.294 µM | [31] 0.098 µM | [32] 0.0169 µM | [58] 0.0422 µM | [33] 0.191 µM | [59] 0.03 µM | [34] 0.0536 µM | [35] 0.0692 µM | [60] 0.175 µM | [36] 0.0312 µM | [37] 0.0422 µM | [61] < 0.01 µM | [40] 0.0847 µM | [41] 0.115 µM | [62] 0.0614 µM | [42] 0.0348 µM | [44] 0.301 µM | [63] 0.0521 µM | [45] 0.0724 µM | [64] 0.0308 µM | [65] 0.215 µM | [66] 0.0405 µM | [67] 0.0766 µM | [48] 0.136 µM
inactive: [3] 23.7 µM | [11] 12.9 µM | [15] 10.4 µM | [43] 1.44 µM | [46] 4.08 µM
0.0495 µM: [6]
